Laboratory results: PMC5466632, “Clinical on-site monitoring of ß-lactam antibiotics for a personalized antibiotherapy” (Scientific Reports, 2017)
Like-named read-outs stand apart in the source and are kept apart here.

Legend:
[1] = molecular target: T1, PBP3 (penicillin-binding protein 3, PBP3*) (Streptococcus pneumoniae, UniProt Q8DQ99); test: competitive enzyme-linked assay on electrochemical microfluidic chip, avidin-glucose oxidase readout
T1 construct: gene dacA; soluble truncated PBP3 (Gly15-Lys394), N-terminal hexa-His tag kept, synthetic gene, expressed in E. coli BL21*(DE3) pLysS, Ni-NTA purified; captured on anti-His antibody
T1 sequence (Q8DQ99 15-394): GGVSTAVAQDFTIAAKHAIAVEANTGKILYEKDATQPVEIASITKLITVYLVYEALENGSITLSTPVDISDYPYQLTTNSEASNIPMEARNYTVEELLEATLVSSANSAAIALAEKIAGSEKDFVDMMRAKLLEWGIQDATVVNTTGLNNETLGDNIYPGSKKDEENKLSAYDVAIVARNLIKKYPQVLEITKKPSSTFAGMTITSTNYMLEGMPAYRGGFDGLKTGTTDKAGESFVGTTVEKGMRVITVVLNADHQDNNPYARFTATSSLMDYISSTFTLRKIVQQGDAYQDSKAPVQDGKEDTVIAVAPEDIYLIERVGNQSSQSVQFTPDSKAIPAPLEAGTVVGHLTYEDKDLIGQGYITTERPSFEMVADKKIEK
Source text: competitive enzyme-linked assay on electrochemical microfluidic chip, avidin-glucose oxidase readout on PBP3 (penicillin-binding protein 3, PBP3*)

[2] = molecular target: T1, PBP3 (penicillin-binding protein 3, PBP3*); test: competitive enzyme-linked assay on microtiter plate, optical readout; conditions: competition with ampicillin-biotin conjugate

CO/N=C(\C(=O)N[C@@H]1C(=O)N2C(C(=O)O)=C(COC(N)=O)CS[C@H]12)c1ccco1 [cefuroxime]
IC50 ([1]; read-out: Cefuroxime (converted)): 26.1 nM

Cc1nnc(SCC2=C(C(=O)O)N3C(=O)[C@@H](NC(=O)Cn4cnnn4)[C@H]3SC2)s1 [cefazolin]
IC50 ([1]; read-out: Cefazolin (converted)): 19.2 nM

CC1(C)S[C@@H]2[C@H](NC(=O)[C@H](N)c3ccccc3)C(=O)N2[C@H]1C(=O)O [ampicillin]
competitive enzyme-linked assay on microtiter plate, optical readout [2]: confirmed via the optical quantification of ampicillin on a microtiter plate

CCN1CCN(C(=O)N[C@@H](C(=O)N[C@@H]2C(=O)N3[C@@H]2SC(C)(C)[C@@H]3C(=O)O)c2ccccc2)C(=O)C1=O [piperacillin]
IC50 ([1]; read-out: Piperacillin (converted)): 35.5 nM
